Laboratory results as given in PubChem BioAssay AID1918999 (Molecular Pharmacology Branch, DTP, NCI, 2023).
Blank lines part the entries; values can stand above or below the compound they belong to.

Test system: 556581-035-R-J1-PDC complex spheroid growth
Test: Anticancer human tumor 556581-035-R-J1-PDC patient-derived ovarian carcinoma cell line growth inhibition [AhR]
Settings: for IC50: curve of first compound; for viability, T/C: stronger effect = lower value
Outline: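 Complex tumor spheroids co-cultured with HUVEC and human MSC stroma; AhR antagonists tested in combination with standard-of-care and investigational agents. Top concentration at or near clinical Cmax (else 10 microM), half-log dilutions; growth expressed as percent test/control.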

[1] = second compound 0.1 µM, first compound 0.0316 µM
[2] = second compound 0.1 µM, first compound 0.1 µM
[3] = second compound 0.1 µM, first compound 0.316 µM
[4] = second compound 0.1 µM, first compound 1 µM
[5] = second compound 0.1 µM, first compound 3.16 µM
[6] = second compound 0.1 µM, first compound 10 µM
[7] = second compound 0.316 µM, first compound 0.0316 µM
[8] = second compound 0.316 µM, first compound 0.1 µM
[9] = second compound 0.316 µM, first compound 0.316 µM
[10] = second compound 0.316 µM, first compound 1 µM
[11] = second compound 0.316 µM, first compound 3.16 µM
[12] = second compound 0.316 µM, first compound 10 µM
[13] = second compound 1 µM, first compound 0.0316 µM
[14] = second compound 1 µM, first compound 0.1 µM
[15] = second compound 1 µM, first compound 0.316 µM
[16] = second compound 1 µM, first compound 1 µM
[17] = second compound 1 µM, first compound 3.16 µM
[18] = second compound 1 µM, first compound 10 µM
[19] = second compound 3.16 µM, first compound 0.0316 µM
[20] = second compound 3.16 µM, first compound 0.1 µM
[21] = second compound 3.16 µM, first compound 0.316 µM
[22] = second compound 3.16 µM, first compound 1 µM
[23] = second compound 3.16 µM, first compound 3.16 µM
[24] = second compound 3.16 µM, first compound 10 µM
[25] = second compound 10 µM, first compound 0.0316 µM
[26] = second compound 10 µM, first compound 0.1 µM
[27] = second compound 10 µM, first compound 0.316 µM
[28] = second compound 10 µM, first compound 1 µM
[29] = second compound 10 µM, first compound 3.16 µM
[30] = second compound 10 µM, first compound 10 µM
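For viability, T/C in this document: compound exposure lasted 7 days; 100% = DMSO vehicle control growth.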

- IC50 (second compound 0.1 µM): 2.12 µM
- IC50 (second compound 0.316 µM): 2.31 µM
- IC50 (second compound 1 µM): 2.79 µM
- IC50 (second compound 3.16 µM): 2.64 µM
- IC50 (second compound 10 µM): 3.11 µM
SMILES: Nc1ccccc1NC(=O)c1ccc(CNC(=O)OCc2cccnc2)cc1 + Cc1ccccc1N=Nc1ccc(NC(=O)c2ccnn2C)c(C)c1
- viability, T/C [1]: 101%
- viability, T/C [2]: 112%
- viability, T/C [3]: 87.2%
- viability, T/C [4]: 69.3%
- viability, T/C [5]: 40.8%
- viability, T/C [6]: 18.9%
- viability, T/C [7]: 110%
- viability, T/C [8]: 102%
- viability, T/C [9]: 93.7%
- viability, T/C [10]: 72.2%
- viability, T/C [11]: 41.1%
- viability, T/C [12]: 19.4%
- viability, T/C [13]: 110%
- viability, T/C [14]: 106%
- viability, T/C [15]: 92.7%
- viability, T/C [16]: 70%
- viability, T/C [17]: 49%
- viability, T/C [18]: 21.5%
- viability, T/C [19]: 113%
- viability, T/C [20]: 104%
- viability, T/C [21]: 88.3%
- viability, T/C [22]: 68.5%
- viability, T/C [23]: 47.3%
- viability, T/C [24]: 20.6%
- viability, T/C [25]: 99.5%
- viability, T/C [26]: 95.9%
- viability, T/C [27]: 92.9%
- viability, T/C [28]: 68.2%
- viability, T/C [29]: 52.2%
- viability, T/C [30]: 32.8%

- IC50 (second compound 0.1 µM): 1.2 µM
- IC50 (second compound 0.316 µM): 1.34 µM
- IC50 (second compound 1 µM): 1.28 µM
- IC50 (second compound 3.16 µM): 1.13 µM
- IC50 (second compound 10 µM): 1.54 µM
SMILES: O=C(C=Cc1cccc(S(=O)(=O)Nc2ccccc2)c1)NO + Cc1ccccc1N=Nc1ccc(NC(=O)c2ccnn2C)c(C)c1
- viability, T/C [1]: 99.8%
- viability, T/C [2]: 113%
- viability, T/C [3]: 87%
- viability, T/C [4]: 50.8%
- viability, T/C [5]: 28.4%
- viability, T/C [6]: 4.1%
- viability, T/C [7]: 106%
- viability, T/C [8]: 92.7%
- viability, T/C [9]: 91.9%
- viability, T/C [10]: 57.1%
- viability, T/C [11]: 24.9%
- viability, T/C [12]: 4.53%
- viability, T/C [13]: 93.9%
- viability, T/C [14]: 107%
- viability, T/C [15]: 91.7%
- viability, T/C [16]: 53.2%
- viability, T/C [17]: 27.7%
- viability, T/C [18]: 6.45%
- viability, T/C [19]: 96.4%
- viability, T/C [20]: 90.5%
- viability, T/C [21]: 77.7%
- viability, T/C [22]: 51.4%
- viability, T/C [23]: 27.1%
- viability, T/C [24]: 5.72%
- viability, T/C [25]: 86.2%
- viability, T/C [26]: 83.2%
- viability, T/C [27]: 79.8%
- viability, T/C [28]: 61%
- viability, T/C [29]: 30.9%
- viability, T/C [30]: 7.96%

- IC50 (second compound 0.1 µM): > 10 µM
- IC50 (second compound 0.316 µM): > 10 µM
- IC50 (second compound 1 µM): > 10 µM
- IC50 (second compound 3.16 µM): > 10 µM
- IC50 (second compound 10 µM): > 10 µM
SMILES: O=C(c1cc(Cc2n[nH]c(=O)c3ccccc23)ccc1F)N1CCN(C(=O)C2CC2)CC1 + Cc1ccccc1N=Nc1ccc(NC(=O)c2ccnn2C)c(C)c1
- viability, T/C [1]: 100%
- viability, T/C [2]: 92.5%
- viability, T/C [3]: 89.2%
- viability, T/C [4]: 95%
- viability, T/C [5]: 78.3%
- viability, T/C [6]: 76.1%
- viability, T/C [7]: 103%
- viability, T/C [8]: 88.2%
- viability, T/C [9]: 87.8%
- viability, T/C [10]: 97.3%
- viability, T/C [11]: 87.8%
- viability, T/C [12]: 72.3%
- viability, T/C [13]: 92.7%
- viability, T/C [14]: 96.8%
- viability, T/C [15]: 93.3%
- viability, T/C [16]: 99.5%
- viability, T/C [17]: 93.3%
- viability, T/C [18]: 76.6%
- viability, T/C [19]: 89%
- viability, T/C [20]: 93.7%
- viability, T/C [21]: 84.2%
- viability, T/C [22]: 80.9%
- viability, T/C [23]: 82.4%
- viability, T/C [24]: 77.5%
- viability, T/C [25]: 78.2%
- viability, T/C [26]: 82.3%
- viability, T/C [27]: 82.5%
- viability, T/C [28]: 82.6%
- viability, T/C [29]: 82.4%
- viability, T/C [30]: 74.8%
